Type in all cases: in vivo
Data set [1] relates to Lolium perenne (LOLPE). The data set can be described thus: Example A glasshouse herbicide test, post-emergence, LOLPE. As to conditions: Lolium perenne, post-emergence, 312 h, Rate 250 g/ha, sprayed after 8 days cultivation, evaluated after 13 days, read-out: Post-Emergence Activity LOLPE (100=total damage to plant; 0=no damage to plant). As for the experimental part: (§1) Seeds of a variety of test species are sown in standard soil in pots. After cultivation for one day (pre-emergence) or after 8 days cultivation (post-emergence) under controlled conditions in a glasshouse (at 24/16° C., day/night; 14 hours light; 65% humidity), the plants are sprayed with an aqueous spray solution derived from the formulation of the technical active ingredient in acetone/water (50:50) solution containing 0.5% Tween 20 (polyoxyethelyene sorbitan monolaurate, CAS RN 9005-64-5).
(§2) The test plants are then grown in a glasshouse under controlled conditions in a glasshouse (at 24/16° C., day/night; 14 hours light; 65% humidity) and watered twice daily. After 13 days for pre and post-emergence, the test is evaluated (100=total damage to plant; 0=no damage to plant).
(§3) Lolium perenne (LOLPE), Alopecurus myosuroides (ALOMY), Echinochloa crus-galli (ECHCG), Avena fatua (AVEFA)

For data set [2], the system named is Alopecurus myosuroides (ALOMY). The data set can be described thus: Example A glasshouse herbicide test, pre-emergence, ALOMY. Particulars: Alopecurus myosuroides, pre-emergence, 312 h, Rate 250 g/ha, sprayed after cultivation for one day, evaluated after 13 days, read-out: Pre-Emergence Activity ALOMY (100=total damage to plant; 0=no damage to plant). As for the experimental part:
as §1, §2, §3

The test system of data set [3] is Echinochloa crus-galli (ECHCG). The data set can be described thus: Example A glasshouse herbicide test, pre-emergence, ECHCG. As to conditions: Echinochloa crus-galli, pre-emergence, 312 h, Rate 250 g/ha, sprayed after cultivation for one day, evaluated after 13 days, read-out: Pre-Emergence Activity ECHCG (100=total damage to plant; 0=no damage to plant). As to the method: as §1, §2, §3

The subject of data set [4] is Lolium perenne (LOLPE). The data set can be described thus: Example A glasshouse herbicide test, pre-emergence, LOLPE. Particulars: Lolium perenne, pre-emergence, 312 h, Rate 250 g/ha, sprayed after cultivation for one day, evaluated after 13 days, read-out: Pre-Emergence Activity LOLPE (100=total damage to plant; 0=no damage to plant). As to the method: as §1, §2, §3

For data set [5], the system named is Winter Wheat variety 'Hereward'. The data set can be described thus: Example B crop damage test, post-emergence, unsafened wheat. Particulars: Rate 250 g/ha; post-emergence spray after 8 days cultivation; no safener; evaluated after 13 days. As for the experimental part:
Seeds of the Winter Wheat variety ‘Hereward’ were sown in standard soil in pots. After 8 days cultivation under controlled conditions in a glasshouse (at 24/16° C., day/night; 14 hours light; 65% humidity), the plants were sprayed post-emergence with an aqueous spray solution derived from the formulation of the technical active ingredient in acetone/water (50:50) solution containing 0.5% Tween 20 (polyoxyethelyene sorbitan monolaurate, CAS RN 9005-64-5).
(§4) The test plants were then grown in a glasshouse under controlled conditions in a glasshouse (at 24/16° C., day/night; 14 hours light; 65% humidity) and watered twice daily. After 13 days for pre and post-emergence, the test was evaluated (100=total damage to plant; 0=no damage to plant).

The subject of data set [6] is Alopecurus myosuroides (ALOMY). The data set can be described thus: Example A glasshouse herbicide test, post-emergence, ALOMY. As to conditions: Alopecurus myosuroides, post-emergence, 312 h, Rate 250 g/ha, sprayed after 8 days cultivation, evaluated after 13 days, read-out: Post-Emergence Activity ALOMY (100=total damage to plant; 0=no damage to plant). As to the method:
as §1, §2, §3

Data set [7] has as its system Avena fatua (AVEFA). The data set can be described thus: Example A glasshouse herbicide test, post-emergence, AVEFA. As to conditions: Avena fatua, post-emergence, 312 h, Rate 250 g/ha, sprayed after 8 days cultivation, evaluated after 13 days, read-out: Post-Emergence Activity AVEFA (100=total damage to plant; 0=no damage to plant). As for the experimental part: as §1, §2, §3

The subject of data set [8] is Avena fatua (AVEFA). The data set can be described thus: Example A glasshouse herbicide test, pre-emergence, AVEFA. As to conditions: Avena fatua, pre-emergence, 312 h, Rate 250 g/ha, sprayed after cultivation for one day, evaluated after 13 days, read-out: Pre-Emergence Activity AVEFA (100=total damage to plant; 0=no damage to plant). As for the experimental part:
as §1, §2, §3

Data set [9] concerns Echinochloa crus-galli (ECHCG). The data set can be described thus: Example A glasshouse herbicide test, post-emergence, ECHCG. As to conditions: Echinochloa crus-galli, post-emergence, 312 h, Rate 250 g/ha, sprayed after 8 days cultivation, evaluated after 13 days, read-out: Post-Emergence Activity ECHCG (100=total damage to plant; 0=no damage to plant). As to the method:
as §1, §2, §3

Data set [10] deals with Winter Wheat variety 'Hereward'. The data set can be described thus: Example B crop damage test, post-emergence, wheat seed treated with safener cloquintocet mexyl. As to conditions: Rate 250 g/ha; post-emergence spray 8 days after sowing; seed treated with cloquintocet mexyl 0.5 g/kg dry seed; evaluated after 13 days. As for the experimental part: Seeds of the Winter Wheat variety ‘Hereward’ were seed treated with a wettable powder formulation of the cereal herbicide safener, cloquintocet mexyl, at a rate of 0.5 grams per kilogram of dry seed prior to the initiation of glasshouse testing. One seed was sown per 1.5 inch plastic pot into a sandy loam soil at a depth of 1 cm, 8 days prior to application of the test compounds and was watered and grown under controlled conditions in a glasshouse (at 24/16° C., day/night; 14 hours light; 65% humidity). The plants were sprayed post-emergence with an aqueous spray solution derived from the formulation of the technical active ingredient in acetone/water (50:50) solution containing 0.5% Tween 20 (polyoxyethelyene sorbitan monolaurate, CAS RN 9005-64-5).
as §4

Each structure is given as a SMILES string.

On to `Cc1cc(C)c(C2=C(OC(=O)C(C)(C)C)CC(CC3CCCCC3)C2=O)c(C)c1` (stereo not shown) [Compound B2], for which the pest or weed control at 250 g/ha is 90% in [1]; 30% in [2]; 100% in [3]; 100% in data set [4]; 80% in data set [6]; 80% in data set [7]. The pest or weed control at 250 g/ha in [8] is 0%; in [9], 60%. Besides, the “Winter Wheat (Hereward) damage (100=total damage to plant; 0=no damage to plant)” value in data set [5] worked out at 70. Also, the “Winter Wheat (Hereward) + cloquintocet mexyl damage (100=total damage to plant; 0=no damage to plant)” value in [10] is given as 0.
With `Cc1cc(Br)cc(C)c1C1C(=O)C/C(=C\C2CCCCC2)C1=O` (stereo not shown) [Compound A7], the pest or weed control at 250 g/ha was determined as 30% in data set [1]; 40% in data set [2]; 50% in [3]; 60% in data set [4]; 50% in [6]; 40% in [7]. For the same molecule, the pest or weed control at 250 g/ha in data set [8] was 20%; in data set [9], 80%. The “Winter Wheat (Hereward) damage (100=total damage to plant; 0=no damage to plant)” value in data set [5] is reported as 20. Moreover, the “Winter Wheat (Hereward) + cloquintocet mexyl damage (100=total damage to plant; 0=no damage to plant)” value in data set [10] was 0.
On to `Cc1cc(C)c(C2C(=O)CC(CC3CCC3)C2=O)c(C)c1` (stereo not shown) [Compound A25], for which the pest or weed control at 250 g/ha in [1] came out at 100%; in [2], 100%; in [3], 100%; in data set [4], 100%; in data set [6], 60%; in data set [7] it was 80%. For the same molecule, the pest or weed control at 250 g/ha in data set [8] is 60%; in data set [9], 90%. For the same molecule, the “Winter Wheat (Hereward) damage (100=total damage to plant; 0=no damage to plant)” value in data set [5] was determined as 30. Further, the “Winter Wheat (Hereward) + cloquintocet mexyl damage (100=total damage to plant; 0=no damage to plant)” value in data set [10] is recorded as 0.
As to `Cc1cc(C)c(C2C(=O)C/C(=C\C3CCCCC3)C2=O)c(C)c1` (stereo not shown) [Compound A1], the pest or weed control at 250 g/ha in data set [1] is 80%; in data set [2] it was 70%; in [3] it was 100%; in data set [4] it was 100%; in [6], 80%; in [7], 80%. Further, the figures for the pest or weed control at 250 g/ha in data set [8] and in [9] were 50% and 90%, respectively. In data set [5], the “Winter Wheat (Hereward) damage (100=total damage to plant; 0=no damage to plant)” value is 60. For the same molecule, the “Winter Wheat (Hereward) + cloquintocet mexyl damage (100=total damage to plant; 0=no damage to plant)” value in data set [10] was 50.
Regarding `Cc1cc(C)c(C2C(=O)CC(CC3CCC(C)CC3)C2=O)c(C)c1` (stereo not shown) [Compound A33], the pest or weed control at 250 g/ha in data set [1] came to 100%; in [2], 30%; in [3] it was 100%; in data set [4], 0%; in [6] it was 30%; in data set [7] it was 70%. Further, the pest or weed control at 250 g/ha in data set [8] amounted to 50%; in data set [9], 60%. In addition, the “Winter Wheat (Hereward) damage (100=total damage to plant; 0=no damage to plant)” value in data set [5] was 40. The “Winter Wheat (Hereward) + cloquintocet mexyl damage (100=total damage to plant; 0=no damage to plant)” value in [10] came out at 0.
Turning to `COC1CCC(CC2CC(=O)C(c3c(C)cc(C)cc3C)C2=O)CC1` (stereo not shown) [Compound A38, 4-(4-Methoxy-cyclohexylmethyl)-2-(2,4,6-trimethyl-phenyl)-cyclopentane-1,3-dione], the pest or weed control at 250 g/ha in data set [1] stood at 100%; in data set [2], 90%; in [3], 100%; in [4], 100%; in data set [6], 100%; in data set [7] it was 100%. Also, the pest or weed control at 250 g/ha in [8] is 60%; in data set [9], 100%. Moreover, the “Winter Wheat (Hereward) damage (100=total damage to plant; 0=no damage to plant)” value in [5] is on record as 70. Further, in [10], the “Winter Wheat (Hereward) + cloquintocet mexyl damage (100=total damage to plant; 0=no damage to plant)” value is recorded as 50.
Regarding `Cc1cc(C)c(C2C(=O)CC(CC3CCCC3)C2=O)c(C)c1` (stereo not shown) [Compound A3], the pest or weed control at 250 g/ha in data set [1] was found to be 90%; in data set [2], 100%; in data set [3] it was 100%; in data set [4], 100%; in [6], 90%; in [7], 80%. Also, the pest or weed control at 250 g/ha in data set [8] was 70%; in [9], 90%. Further, in data set [5], the “Winter Wheat (Hereward) damage (100=total damage to plant; 0=no damage to plant)” value stood at 60. The “Winter Wheat (Hereward) + cloquintocet mexyl damage (100=total damage to plant; 0=no damage to plant)” value in [10] was 20.
In the case of `Cc1cc(C)c(C2=C(OC(=O)C(C)(C)C)C/C(=C\C3CCCCC3)C2=O)c(C)c1` [Compound B1], the pest or weed control at 250 g/ha amounted to 70% in data set [1]; 70% in data set [2]; 100% in [3]; 80% in data set [4]; 50% in data set [6]; 10% in data set [7]. Also, the pest or weed control at 250 g/ha is 20% in data set [8] and 30% in data set [9]. Also, the “Winter Wheat (Hereward) damage (100=total damage to plant; 0=no damage to plant)” value in data set [5] is 10. Besides, the “Winter Wheat (Hereward) + cloquintocet mexyl damage (100=total damage to plant; 0=no damage to plant)” value in data set [10] is reported as 0.
For the molecule `Cc1cc(C)c(C2C(=O)CC(CC3CCC(=NO)CC3)C2=O)c(C)c1` (stereo not shown) [Compound A8], the pest or weed control at 250 g/ha in data set [1] turned out to be 100%; in data set [2] it was 60%; in data set [3], 90%; in data set [4], 90%; in data set [6], 70%; in data set [7], 90%. The figures for the pest or weed control at 250 g/ha in data set [8] and in data set [9] were 40% and 50%, respectively. Also, the “Winter Wheat (Hereward) damage (100=total damage to plant; 0=no damage to plant)” value in data set [5] worked out at 30. Also, the “Winter Wheat (Hereward) + cloquintocet mexyl damage (100=total damage to plant; 0=no damage to plant)” value in data set [10] was determined as 10.
`Cc1cc(C)c(C2C(=O)C/C(=C\C3CCCC4CCCCC34)C2=O)c(C)c1` (stereo not shown) [Compound A31]: the pest or weed control at 250 g/ha in [1] came out at 70%; in data set [2], 40%; in data set [3], 90%; in data set [4], 90%; in [6], 20%; in data set [7], 20%. Moreover, the pest or weed control at 250 g/ha was determined as 20% in [8] and 80% in data set [9]. Further, the “Winter Wheat (Hereward) damage (100=total damage to plant; 0=no damage to plant)” value in data set [5] came to 20. Moreover, the “Winter Wheat (Hereward) + cloquintocet mexyl damage (100=total damage to plant; 0=no damage to plant)” value in data set [10] amounted to 0.

The record behind these values is patent US8791303B2, “Herbicides” (Syngenta Limited, priority 2009, dated 2014).
